Source: patent US8188135B2, “Compounds as cannabinoid receptor ligands” (priority 2008, dated 2012)
Where two headings read alike, the source gives them in different places.

Columns and labels:
[1] = target: T1, human CB2 receptors (Homo sapiens, UniProt P34972); assay: human CB2 radioligand binding assay ([3H]CP 55,940 competition); settings: HEK293 membranes, 0.5 nM [3H]CP 55,940
T1 construct: expressed in transfected cells; host or cells: HEK293
Procedure, shortened: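 Displacement of 0.5 nM [3H]CP 55,940 over 0.01 nM-10 μM test compound, measured on human CB2 membranes from stably transfected HEK293 cells. Incubation 90 min at 30 °C in Tris/EDTA/MgCl2/BSA, pH 7.4, then filter-bound radioactivity counted; 10 μM unlabeled CP 55,940 defined nonspecific binding.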

[2] = target: T2, Rat CB1 (Rattus norvegicus, UniProt P20272); assay: rat CB1 cyclase functional assay (HitHunter cAMP); format: cell-based; settings: HEK cells, forskolin 37 μM
T2 construct: expressed in transfected cells; host or cells: HEK
T2 sequence (P20272 whole entry): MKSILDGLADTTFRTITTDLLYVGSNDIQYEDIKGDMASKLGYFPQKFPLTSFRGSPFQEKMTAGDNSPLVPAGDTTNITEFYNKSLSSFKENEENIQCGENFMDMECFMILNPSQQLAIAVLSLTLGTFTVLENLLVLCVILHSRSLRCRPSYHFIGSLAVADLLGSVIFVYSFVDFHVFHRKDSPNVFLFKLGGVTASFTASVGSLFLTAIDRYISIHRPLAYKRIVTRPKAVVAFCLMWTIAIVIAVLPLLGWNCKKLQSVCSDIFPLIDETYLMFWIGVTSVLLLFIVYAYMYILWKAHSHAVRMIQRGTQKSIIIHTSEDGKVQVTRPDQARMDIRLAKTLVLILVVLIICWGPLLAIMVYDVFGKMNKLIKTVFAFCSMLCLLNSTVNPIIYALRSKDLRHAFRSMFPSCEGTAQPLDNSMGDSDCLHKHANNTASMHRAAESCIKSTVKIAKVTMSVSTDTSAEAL
Description: (§1) The cyclase functional assays were performed using the HitHunter™ cAMP assay kit from DiscoveRx (Fremont, Calif.) according to vendor's protocol. Briefly, HEK cells expressing CB2 or CB1 receptors (rat or human) were detached using cell dissociation buffer (Invitrogen, Carlsbad, Calif.), dispersed and placed in suspension at 10,000 cells per well in 96 well plates prior to the assay. Cell suspensions were incubated at 37° C. for 20 min with variable concentrations of test ligands and or 10 μM CP 55,940-positive control in the presence of a fixed concentration of forskolin (18 μM for rat CB2 and 37 μM for rat CB1) in Dulbescco's phosphate-buffered saline (Invitrogen, Carlsbad, Calif.) supplemented with bovine serum albumin (0.01% final concentration). The reactions were terminated by the addition of lysis buffer and the luminescence was detected following the procedure according to the manufacturer's instructions. EC50 values were calculated using sigmoidal dose-response curve fitting from Prism (GraphPad).

[3] = target: T3, rat CB2 (Rattus norvegicus, UniProt Q9QZN9); assay: rat CB2 cyclase functional assay (HitHunter cAMP); format: cell-based; design: expressed in transfected cells; host or cells: HEK; settings: HEK cells, forskolin 18 μM
T3 sequence (Q9QZN9 1-360): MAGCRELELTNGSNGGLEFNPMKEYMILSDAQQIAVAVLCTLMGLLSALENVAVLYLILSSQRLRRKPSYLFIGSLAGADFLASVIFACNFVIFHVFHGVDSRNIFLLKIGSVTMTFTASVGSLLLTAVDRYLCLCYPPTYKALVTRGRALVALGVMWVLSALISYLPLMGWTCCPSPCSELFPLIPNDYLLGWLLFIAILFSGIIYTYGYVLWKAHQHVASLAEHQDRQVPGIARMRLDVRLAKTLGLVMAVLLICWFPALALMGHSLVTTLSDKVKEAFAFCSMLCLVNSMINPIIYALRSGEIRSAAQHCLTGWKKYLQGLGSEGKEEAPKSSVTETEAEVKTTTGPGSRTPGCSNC
Description: as §1

[4] = target: T3, rat CB2; assay: rat CB2 radioligand binding assay ([3H]CP 55,940 competition); design: expressed in transfected cells; host or cells: HEK293; settings: HEK293 membranes, 0.5 nM [3H]CP 55,940
Procedure, shortened: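 Competition binding against 0.5 nM [3H]CP 55,940 (pH 7.4 buffer with 0.5 mg/mL BSA, 30 °C, 45 min), with displacers spanning 0.01 nM–10 μM at five concentrations. Receptor source: stably transfected HEK293 membranes, 20 μg/well. Nonspecific binding defined by 10 μM unlabeled CP 55,940; readout by filtration and counting.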

[5] = read-out: Rat CB1 cyclase (EC50)
[6] = read-out: rat CB2 cyclase (EC50)

T1 sequence (P34972 whole entry): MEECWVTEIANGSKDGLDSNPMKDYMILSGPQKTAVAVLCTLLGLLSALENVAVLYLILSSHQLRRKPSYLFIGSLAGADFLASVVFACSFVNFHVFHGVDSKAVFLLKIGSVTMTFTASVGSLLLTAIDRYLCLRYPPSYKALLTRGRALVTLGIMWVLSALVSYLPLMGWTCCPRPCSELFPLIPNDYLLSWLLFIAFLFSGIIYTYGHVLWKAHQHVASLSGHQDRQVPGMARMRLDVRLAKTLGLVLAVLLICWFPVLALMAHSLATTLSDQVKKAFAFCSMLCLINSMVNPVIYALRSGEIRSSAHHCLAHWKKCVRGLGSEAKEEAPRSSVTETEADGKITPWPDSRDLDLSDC

Row | Structure (SMILES) | Ki ([1]; read-out: human CB2 (Ki)) [nM] | EC50 [2, 5] [nM] | EC50 [3, 6] [nM] | Ki ([4]; read-out: rat CB2 (Ki)) [nM] | Ki ([1]; human CB2 (Ki, nM)) [nM] | EC50 ([2]; Rat CB1 cyclase (EC50, nM)) [nM] | EC50 ([3]; rat CB2 cyclase (EC50, nM)) [nM] | Ki ([4]; rat CB2 (Ki, nM)) [nM]
1 | Cn1c(C(C)(C)C)c/c(=N\C(=O)c2cc(C(F)(F)F)ccc2OC[C@@H]2C=CCO2)n1C[C@H]1CCCO1 [Example 25, N-{(3E)-5-tert-1-methyl-2-[(2R)-tetrahydrofuran-2-ylmethyl]-1,2-dihydro-3H-pyrazol-3-ylidene}-2-[(2S)-2,5-dihydrofuran-2-ylmethoxy]-5-(trifluoromethyl)benzamide] | 31 | 531 | 0.3 | 20 |  |  |  | 
2 | Cn1c(C(C)(C)C)c/c(=N\C(=O)c2cc(C(F)(F)F)ccc2OC[C@@H]2CCCO2)n1CC1CC1 [Example 27, N-[(3E)-5-tert-butyl-2-(cyclopropylmethyl)-1-methyl-1,2-dihydro-3H-pyrazol-3-ylidene]-2-[(2S)-tetrahydrofuran-2-ylmethoxy]-5-(trifluoromethyl)benzamide] |  |  |  |  | 23 | 3370 | 0.2 | 9.4
3 | Cn1c(C(C)(C)C)c/c(=N\C(=O)c2cc(C(F)(F)F)cc(Cl)c2OC[C@@H]2CCCO2)n1C[C@H]1CCCO1 [Example 28, N-{(3E)-5-tert-butyl-1-methyl-2-[(2R)-tetrahydrofuran-2-ylmethyl]-1,2-dihydro-3H-pyrazol-3-ylidene}-3-chloro-2-[(2S)-tetrahydrofuran-2-ylmethoxy]-5-(trifluoromethyl)benzamide] |  |  |  |  | 44 | 8090 | 0.91 | 15
4 | CCCCn1nc(C(C)(C)C)s/c1=N\C(=O)c1cc(C(F)(F)F)ccc1OC[C@@H]1CCCN1C [Example 29, N-[(2Z)-3-butyl-5-tert-butyl-1,3,4-thiadiazol-2(3H)-ylidene]-2-{[(2S)-1-methylpyrrolidin-2-yl]methoxy}-5-(trifluoromethyl)benzamide] |  |  |  |  | 14 | 1680 | 3.7 | 11
5 | Cn1c(C(C)(C)C)c/c(=N\C(=O)c2cc(C(F)(F)F)ccc2OC[C@@H]2CCCO2)n1Cc1ccc(F)cc1 [Example 30, N-[(3E)-5-tert-butyl-2-(4-fluorobenzyl)-1-methyl-1,2-dihydro-3H-pyrazol-3-ylidene]-2-[(2S)-tetrahydrofuran-2-ylmethoxy]-5-(trifluoromethyl)benzamide] |  |  |  |  | 28 | > 27000 | 2.5 | 23
6 | CN1CCC[C@H]1COc1ccc(C(F)(F)F)cc1C(=O)/N=c1\oc(C(C)(C)C)cn1C[C@H]1CCCO1 [Example 32, N-[(2Z)-5-tert-butyl-3-[(2R)-tetrahydrofuran-2-ylmethyl]-1,3-oxazol-2(3H)-ylidene]-2-{[(2S)-1-methylpyrrolidin-2-yl]methoxy}-5-(trifluoromethyl)benzamide] |  |  |  |  | 88 | 3870 | 0.6 | 75
7 | CN1CCC[C@H]1COc1ccc(C(F)(F)F)cc1C(=O)/N=C1\SC(C)(C)CN1C[C@H]1CCCO1 [Example 33, N-{(2Z)-5,5-dimethyl-3-[(2R)-tetrahydrofuran-2-ylmethyl]-1,3-thiazolidin-2-ylidene}-2-{[(2S)-1-methylpyrrolidin-2-yl]methoxy}-5-(trifluoromethyl)benzamide] |  |  |  |  | 23 | 5380 | 0.09 | 20
8 | CN1CCC[C@H]1COc1ccc(C(F)(F)F)cc1C(=O)/N=c1\cc(C(C)(C)C)on1C[C@H]1CCCO1 [Example 39, N-[(3E)-5-tert-butyl-2-[(2R)-tetrahydrofuran-2-ylmethyl]isoxazol-3(2H)-ylidene]-2-{[(2S)-1-methylpyrrolidin-2-yl]methoxy}-5-(trifluoromethyl)benzamide] |  |  |  |  | 62 | 2620 | 0.63 | 46
9 | Cn1c(C(C)(C)C)c/c(=N\C(=O)c2cc(C(F)(F)F)ccc2OCc2cnccn2)n1C[C@H]1CCCO1 [Example 40, N-{(3E)-5-tert-butyl-1-methyl-2-[(2R)-tetrahydrofuran-2-ylmethyl]-1,2-dihydro-3H-pyrazol-3-ylidene}-2-(pyrazin-2-ylmethoxy)-5-(trifluoromethyl)benzamide] |  |  |  |  | 126 | > 27000 | 3.3 | 73
10 | Cn1c(C(C)(C)C)c/c(=N\C(=O)c2cc(C(F)(F)F)ccc2OCCNC(=O)OC(C)(C)C)n1C[C@H]1CCCO1 [Example 41, tert-butyl 2-[2-[({(3E)-5-tert-butyl-1-methyl-2-[(2R)-tetrahydrofuran-2-ylmethyl]-1,2-dihydro-3H-pyrazol-3-ylidene}amino)carbonyl]-4-(trifluoromethyl)phenoxy]ethylcarbamate] |  | > 27000 | 1000 |  | 96 |  |  | 21
11 | Cn1c(C(C)(C)C)c/c(=N\C(=O)c2cc(C(F)(F)F)ccc2OCC(O)CO)n1C[C@H]1CCCO1 (stereo partly drawn) [Example 42] |  |  |  |  | 20 | 6100 | 0.34 | 11
12 | Cn1c(C(C)(C)C)c/c(=N\C(=O)c2cc(C(F)(F)F)ccc2OCc2cccnc2)n1C[C@H]1CCCO1 [Example 43, N-{(3E)-5-tert-butyl-1-methyl-2-[(2R)-tetrahydrofuran-2-ylmethyl]-1,2-dihydro-3H-pyrazol-3-ylidene}-2-(pyridin-3-ylmethoxy)-5-(trifluoromethyl)benzamide] |  |  |  |  | 220 | > 27000 | 2.4 | 56
13 | Cn1c(C(C)(C)C)c/c(=N\C(=O)c2cc(C(F)(F)F)ccc2OCCNS(C)(=O)=O)n1C[C@H]1CCCO1 [Example 45, N-{(3E)-5-tert-butyl-1-methyl-2-[(2R)-tetrahydrofuran-2-ylmethyl]-1,2-dihydro-3H-pyrazol-3-ylidene}-2-{2-[(methylsulfonyl)amino]ethoxy}-5-(trifluoromethyl)benzamide] |  |  |  |  | 19 | 4940 | 0.47 | 7.8
14 | CCOCCOCCOc1ccc(C(F)(F)F)cc1C(=O)/N=c1\cc(C(C)(C)C)n(C)n1C[C@H]1CCCO1 [Example 47, N-{(3E)-5-tert-butyl-1-methyl-2-[(2R)-tetrahydrofuran-2-ylmethyl]-1,2-dihydro-3H-pyrazol-3-ylidene}-2-[2-(2-ethoxyethoxy)ethoxy]-5-(trifluoromethyl)benzamide] |  |  |  |  | 70 | > 27000 | 5.6 | 89
15 | Cn1c(C(C)(C)C)c/c(=N\C(=O)c2cc(C(F)(F)F)ccc2OCCNS(=O)(=O)C2CC2)n1C[C@H]1CCCO1 [Example 49, N-{(3E)-5-tert-butyl-1-methyl-2-[(2R)-tetrahydrofuran-2-ylmethyl]-1,2-dihydro-3H-pyrazol-3-ylidene}-2-{2-[(cyclopropylsulfonyl)amino]ethoxy}-5-(trifluoromethyl)benzamide] |  |  |  |  | 13 | 4190 | 0.12 | 2.7
16 | CCS(=O)(=O)NCCOc1ccc(C(F)(F)F)cc1C(=O)/N=c1\cc(C(C)(C)C)n(C)n1C[C@H]1CCCO1 [Example 50] |  |  |  |  | 21 | 1180 | 0.12 | 8.5
17 | Cn1c(C(C)(C)C)c/c(=N\C(=O)c2cc(C(F)(F)F)ccc2OC[C@@H]2CCC(C)(C)O2)n1C[C@H]1CCCO1 [Example 52] | 10 | > 27000 | 0.93 | 19 |  |  |  | 
18 | Cn1c(C(C)(C)C)c/c(=N\C(=O)c2cc(C(F)(F)F)ccc2OCCC2=CCCC2)n1C[C@H]1CCCO1 [Example 53, N-{(3E)-5-tert-butyl-1-methyl-2-[(2R)-tetrahydrofuran-2-ylmethyl]-1,2-dihydro-3H-pyrazol-3-ylidene}-2-(2-cyclopent-1-en-1-ylethoxy)-5-(trifluoromethyl)benzamide] |  |  |  |  | 1.5 | 1970 | 2.7 | 2.8
